Measurements: PMC8348200, “Selective Antifungal Activity and Fungal Biofilm Inhibition of Tryptophan Center Symmetrical Short Peptide” (International Journal of Molecular Sciences, 2021)
Values after ≈ are worked out from the molar mass of the structure shown. Read-outs that look alike come from different tables or passages of the source.

What was measured:
E. coli 25922 = assay: microbe, parasite or virus in culture; assay type: cell-based, Escherichia coli; details: Escherichia coli, 25922; MHB, 37 °C 24 h, peptides 0.5-128 μM; lowest concentration inhibiting 95% of growth; three independent experiments; read-out: MICs, E. coli 25922
Experimental: (§1) The peptide antimicrobial activity was determined according to the Clinical and Laboratory Standards Institute method, with modifications. Bacteria concentration was measured by ultraviolet spectrophotometer, and fungi concentration was confirmed by McMillan’s turbidimetric method, which compared the fungi solution with the standard McFarland tube in front of the horizontal line on the paper with the naked eye. Because the light has different refract in different liquids. The standard solution is composed of sulfuric acid and barium chloride, which is equivalent to 1*10^8 CFU fungi. After cultivation, the growth of fungi and bacteria was measured by TECAN automatic enzyme label instrument. Briefly, bacterial cells were cultured in MHB until logarithmic phase, yeast colonies cultured in Yeast Peptone Dextrose Agar (YPDA) were picked and diluted in RPMI 1640 growth medium buffered with morpholine propane sulfonic acid (MOPS), and then 50 μL of bacterial or fungi cell solution (0.5–1 × 10^4 CFU/mL) was added to each well of sterile 96-well plates. Each well contained 50 μL of AMPs dissolved in BSA; the final concentrations of the peptides ranged from 0.5 to 128 μM. The lowest concentration of peptide with no microbial growth being observed were measured after incubation at 37 °C for 24 h for bacteria or at 28 °C for 48 h for fungi. Broth with microbial cells and un-inoculated broth were used as positive control and negative controls, respectively.

E. coli UB1005 = assay: microbe, parasite or virus in culture; assay type: cell-based, Escherichia coli; details: Escherichia coli, UB1005; MHB, 37 °C 24 h, peptides 0.5-128 μM; lowest concentration inhibiting 95% of growth; three independent experiments; read-out: MICs, E. coli UB1005
Experimental: as §1

C.albicans cgmcc 2.2086 = assay: microbe, parasite or virus in culture; assay type: cell-based, Candida albicans; details: C.albicans cgmcc 2.2086
Experimental: as §1, with “The lowest concentration of peptide with no microbial growth being observed were measured after incubation at 37 °C for 24 h for bacteria or at 28 °C for 48 h for fungi.” left out
The salt and acid sensitivities of the peptides were measured using with modified method to test MIC values; tested peptides were incubated in the presence of different final concentrations of physiological salts. The subsequent steps were consistent with the MIC determination protocol.

C. albicans cgmcc 2.2086 [1] = assay: Resistance development by sequential passaging at sub-MIC; assay type: cell-based, Candida albicans; details: 20-passage repeating treatment at sub-lethal concentration
Experimental: Resistance development of C. albicans cgmcc 2.2086 against antifungals was explored using a sequential passaging method, described in our previous study [22]. Briefly, MIC testing was first conducted for P19, fluconazole and amphotericin B. After a 24 h incubation, fungal cells growing in a well with a half-MIC level were harvested and diluted to 0.5–1 × 10^4 CFU/mL using RPMI 1640 growth medium buffered with morpholine propane sulfonic acid (MOPS). The inoculum was subjected to subsequent passage MIC testing, and the process was repeated for 30 days. The fold change in MIC was plotted against the number of passages.

C. albicans cgmcc 2.2086 [2] = assay: Cytoplasmic membrane depolarization assay (DiSC3-5); assay type: cell-based, Candida albicans; details: agents at their MICs, 1 h; 0.4 μM DiSC3-5
Experimental: To analyze membrane disturbances due to P19, melittin, fluconazole or amphotericin B-treated, cells (1 × 10^4 cells/mL) of C. albicans cgmcc 2.2086 were incubated with antimicrobial agents at their respective MICs for 1 h at room temperature; the cells were then harvested by centrifugation and resuspended in 1 mL PBS (pH 7.4). […] Changes in fluorescence were measured from 0 to 800 s with a F-4500 fluorescence spectrophotometer (Hitachi, Japan) at an excitation wavelength of 622 nm and an emission wavelength of 670 nm.

C. albicans cgmcc 2.2086 [3] = assay: Propidium iodide influx, flow cytometry; assay type: cell-based, Candida albicans; details: 1× MIC, 1 h at 28 °C; 10 μg/mL PI
Experimental: Cell membrane permeabilization after treatment with P19, melittin, fluconazole or amphotericin B were also detected via the propidium iodide influx assay. In brief, C. albicans cgmcc 2.2086 cells (1 × 10^4 cells/mL) were treated with antifungal agents for 1 h at 28 °C, then washed, harvested by centrifugation and resuspended in PBS. The cells were treated with 10 μg/mL propidium iodide and incubated for 30 min at room temperature. The uptake of propidium iodide into these cells was analyzed with a FACS flow cytometer (Becton–Dickinson, San Jose, CA) with a laser excitation wavelength of 488 nm. The flow cytometry results can be interpreted as follows. Region Q1 was identified as a living cell region; it represents cells treated with PBS. Q2 region represents the dead cell region. Ignored the surrounding adherent scattered points, the most concentrated scattered points represented the largest cell density. The areas where cells were concentrated represent the state of cells as live or die.

[4] = Candida albicans, CGMCC2, no added salt, read-out: MIC, Control
[5] = Candida albicans, CGMCC2, pH = 6 (acidic conditions), read-out: MIC in acid environment, pH = 6
[6] = Candida albicans, CGMCC2, physiological concentration of FeCl3, read-out: MIC in the presence of FeCl3
[7] = Candida albicans, CGMCC2, physiological concentration of KCl, read-out: MIC in the presence of KCl
[8] = Candida albicans, CGMCC2, physiological concentration of MgCl2, read-out: MIC in the presence of MgCl2
[9] = Candida albicans, CGMCC2, physiological concentration of NH4Cl, read-out: MIC in the presence of NH4Cl
[10] = Candida albicans, CGMCC2, physiological concentration of NaCl (Na+), read-out: MIC in the presence of NaCl
[11] = Candida albicans, CGMCC2, physiological concentration of ZnCl2, read-out: MIC in the presence of ZnCl2

| SMILES | MIC (E. coli 25922) [µM] | MIC (E. coli UB1005) [µM] | MIC (C.albicans cgmcc 2.2086; [4]) [µM] | MIC (C.albicans cgmcc 2.2086; [5]) [µM] | MIC (C.albicans cgmcc 2.2086; [6]) [µM] | MIC (C.albicans cgmcc 2.2086; [7]) [µM] | MIC (C.albicans cgmcc 2.2086; [8]) [µM] | MIC (C.albicans cgmcc 2.2086; [9]) [µM] | MIC (C.albicans cgmcc 2.2086; [10]) [µM] | MIC (C.albicans cgmcc 2.2086; [11]) [µM] | increase in MIC value compared with the first passage (C. albicans cgmcc 2.2086 [1]) [fold] | membrane depolarization (DiSC3-5 fluorescence intensity) (C. albicans cgmcc 2.2086 [2]) | MIC (C.albicans cgmcc 2.2086; no added salt, read-out: MIC, Control) [µM] | MIC (C.albicans cgmcc 2.2086; pH = 6 (acidic conditions), read-out: MIC in acid environment, pH = 6) [µM] | MIC (C.albicans cgmcc 2.2086; physiological concentration of FeCl3, read-out: MIC in the presence of FeCl3) [µM] | MIC (C.albicans cgmcc 2.2086; physiological concentration of KCl, read-out: MIC in the presence of KCl) [µM] | MIC (C.albicans cgmcc 2.2086; physiological concentration of MgCl2, read-out: MIC in the presence of MgCl2) [µM] | MIC (C.albicans cgmcc 2.2086; physiological concentration of NaCl (Na+), read-out: MIC in the presence of NaCl) [µM] | MIC (C.albicans cgmcc 2.2086; physiological concentration of ZnCl2, read-out: MIC in the presence of ZnCl2) [µM] | increase of PI fluorescent signal (C. albicans cgmcc 2.2086 [3]) |
| --- | --- | --- | --- | --- | --- | --- | --- | --- | --- | --- | --- | --- | --- | --- | --- | --- | --- | --- | --- | --- |
| C[C@@H]1[C@H](O)[C@@H](C)/C=C/C=C/C=C/C=C/C=C/C=C/C=C/[C@H](O[C@@H]2O[C@H](C)[C@@H](O)[C@H](N)[C@@H]2O)C[C@@H]2O[C@](O)(C[C@@H](O)C[C@@H](O)[C@H](O)CC[C@@H](O)C[C@@H](O)CC(=O)O[C@H]1C)C[C@H](O)[C@H]2C(=O)O [Amphotericin B, reference compound] | > 128 | > 128 | 1 | 1 (≈ 0.924 µg/mL) | 1 | 1 | 1 | 1 | 2 | 1 | 1024 | minor change of membrane depolarization |  |  |  |  |  |  |  |  |
| OC(Cn1cncn1)(Cn1cncn1)c1ccc(F)cc1F [Fluconazole, reference compound] | > 128 | > 128 | 1 | 1 (≈ 0.306 µg/mL) | 1 | 1 | 1 | 1 | 2 | 1 | 1024 | minor change of membrane depolarization |  |  |  |  |  |  |  |  |
| CC[C@H](C)[C@H](NC(=O)CN)C(=O)NCC(=O)N[C@@H](C)C(=O)N[C@H](C(=O)N[C@@H](CC(C)C)C(=O)N[C@@H](CCCCN)C(=O)N[C@H](C(=O)N[C@@H](CC(C)C)C(=O)N[C@H](C(=O)N[C@H](C(=O)NCC(=O)N[C@@H](CC(C)C)C(=O)N1CCC[C@H]1C(=O)N[C@@H](C)C(=O)N[C@@H](CC(C)C)C(=O)N[C@H](C(=O)N[C@@H](CO)C(=O)N[C@@H](Cc1c[nH]c2ccccc12)C(=O)N[C@H](C(=O)N[C@@H](CCCCN)C(=O)N[C@@H](CCCNC(=N)N)C(=O)N[C@@H](CCCCN)C(=O)N[C@@H](CCCNC(=N)N)C(=O)N[C@@H](CCC(N)=O)C(=O)N[C@@H](CCC(N)=O)C(N)=O)[C@@H](C)CC)[C@@H](C)CC)[C@@H](C)O)[C@@H](C)O)C(C)C)C(C)C [Melittin, reference compound] |  |  |  |  |  |  |  |  |  |  |  |  | 4 | 4 (≈ 11.4 µg/mL) | 4 | 4 | 8 | 8 | 4 | more than 90% |
